Reference: US10233209B2, “Inhibitors of the farnesoid x receptor and uses in medicine” (The United States of America, as represented by the …, priority 2013, dated 2019)
Entries after “also recorded” stand apart in the source; their conditions may differ.

Legend:
human FXR [1] = molecular target: T1, human FXR (Homo sapiens, UniProt Q96RI1); test: PGL4-Shp-TK luciferase assay in Caco-2 cells transfected with human FXR and human ASBT; type: cell-based; details: 100 μM TCA
T1 construct: expressed in transfected cells; host or cells: Caco-2
T1 sequence (Q96RI1 1-486): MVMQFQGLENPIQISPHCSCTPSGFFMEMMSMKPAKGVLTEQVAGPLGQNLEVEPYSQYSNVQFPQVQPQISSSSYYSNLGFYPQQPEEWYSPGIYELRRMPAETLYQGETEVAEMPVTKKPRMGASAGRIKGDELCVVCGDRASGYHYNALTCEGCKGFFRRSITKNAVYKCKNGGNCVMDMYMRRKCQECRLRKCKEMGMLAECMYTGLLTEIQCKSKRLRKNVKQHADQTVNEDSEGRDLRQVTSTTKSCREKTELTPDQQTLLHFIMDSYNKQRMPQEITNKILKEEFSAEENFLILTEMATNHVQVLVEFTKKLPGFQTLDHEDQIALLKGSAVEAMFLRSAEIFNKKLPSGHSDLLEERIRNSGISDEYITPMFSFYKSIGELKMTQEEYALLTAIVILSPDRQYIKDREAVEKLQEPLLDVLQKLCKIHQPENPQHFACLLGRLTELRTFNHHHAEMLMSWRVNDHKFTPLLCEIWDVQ
From the text: (§1) The PGL4-Shp-TK firefly luciferase construct and human Fxr expression plasmid were provided by Grace L. Guo of Rutgers University. The human Asbt expression plasmid was provided by Paul A. Dawson of Wake Forest University School of Medicine. The plasmids were transfected into cells using X-[…]™ HP DNA Transfection Reagent (Roche). The cells were lysed, and luciferase activities measured with a DUAL-LUCIFERASE™ assay kit (Promega). Firefly luciferase activity was normalized to Renilla luciferase activity.
Caco-2 cells were transfected with PGL4-Shp-TK firefly luciferase construct, the control plasmid phRL-SV40, and human FXR and human ASBT expression plasmids. After 24 h, the cells were treated with 100 μM TCA, TβMCA, or TβMCA with […] 100 μM TCA. The cells were lysed, and luciferase activities measured as describe herein. The results are depicted in FIG. 2.

human FXR [2] = molecular target: T2, human FXR (Homo sapiens, UniProt Q96RI1); test: human FXR competition assay (GAL4-FXR chimeric receptor luciferase, HEK293T); type: cell-based; details: in the presence of GW4064
T2 construct: expressed in transfected cells; host or cells: HEK293T
T2 sequence (Q96RI1 262-486 limits assumed): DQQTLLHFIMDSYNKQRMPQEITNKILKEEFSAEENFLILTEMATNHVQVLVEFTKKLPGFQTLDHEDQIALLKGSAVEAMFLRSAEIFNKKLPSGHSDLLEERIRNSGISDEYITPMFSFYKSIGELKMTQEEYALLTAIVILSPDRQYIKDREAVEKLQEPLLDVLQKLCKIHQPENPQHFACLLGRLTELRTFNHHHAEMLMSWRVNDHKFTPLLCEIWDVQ
Description: Luciferase detection was conducted using the Dual Luciferase Reporter Assay kit (Promega Corp., Madison, Wis.) and a Tecan GeniosPro luminescent plate reader (Research Triangle Park, N.C.).
Luciferase detection was conducted using the Dual Luciferase Reporter Assay kit (Promega; Madison, Wis.) and a Tecan GeniosPro™ luminescent plate reader (Research Triangle Park, N.C.).

FXR [3] = molecular target: T3, FXR (Mus musculus, UniProt Q60641); test: FXR signaling in the ileum (Shp, Fgf15 mRNA); type: in vivo; details: mice treated with antibiotic on HFD for three days; TCA and TβMCA 400 mg/kg each, oral
T3 construct: Primary hepatocytes from Fxr^+/+ and Fxr^−/− mice were transfected with PGL4-Shp-TK firefly luciferase construct and the control plasmid phRL-SV40; endogenous in cells; host or cells: primary mouse hepatocytes (Fxr+/+; Fxr-/- as negative control)
T3 sequence (Q60641 1-488): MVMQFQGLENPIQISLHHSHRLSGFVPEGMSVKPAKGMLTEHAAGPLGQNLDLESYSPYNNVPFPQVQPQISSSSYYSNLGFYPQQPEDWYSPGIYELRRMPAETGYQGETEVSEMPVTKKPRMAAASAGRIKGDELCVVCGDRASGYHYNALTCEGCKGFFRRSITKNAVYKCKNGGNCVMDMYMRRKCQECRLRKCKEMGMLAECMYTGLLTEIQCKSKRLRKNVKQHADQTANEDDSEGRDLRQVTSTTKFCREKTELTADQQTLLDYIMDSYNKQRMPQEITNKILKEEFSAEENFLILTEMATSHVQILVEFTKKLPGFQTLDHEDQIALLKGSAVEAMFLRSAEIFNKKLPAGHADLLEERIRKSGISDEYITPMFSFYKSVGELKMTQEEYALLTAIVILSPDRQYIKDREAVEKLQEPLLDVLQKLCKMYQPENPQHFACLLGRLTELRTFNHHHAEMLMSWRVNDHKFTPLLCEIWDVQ
From the text: High-fat diet (HFD) (60% kcal consisting of fat) was purchased from Bioserv. […] Fxr^fl/fl and Fxr^ΔIE (Kim et al., J. Lipid Res. 48:2664-2672, 2007) mice were backcrossed with C57BL/6N mice for over 10 generations. For the antibiotic (the combination of bacitracin, neomycin, and streptomycin) study, male C57BL/6N mice from 6 weeks of age were fed a high-fat diet (“HFD) and administered 0.1% (w/v) of each compound (the combination of bacitracin, neomycin, and streptomycin) in the drinking water. […] For TβMCA in vivo, male C57BL/6N mice from 6 weeks of age were fed a HFD and treated with the antibiotics (0.1% of each compound of bacitracin, neomycin, and streptomycin combination) for 3 days. […] Cumulative food intake and TEEbal were measured for 1 week in vehicle and Gly-MCA-treated mice from 6 to 7 weeks of HFD. TEEbal was measured as previously described (Ravussin et al., Int. J. Obesity 37:399-403, 2013).
The mucosa of intestine was gently scraped and liver was taken and both were flash frozen in liquid nitrogen and stored at −80° C. until RNA was prepared. […] Measured mRNA levels were normalized to those of 18S ribosomal RNA and expressed as fold change relative to those of control group.

FXR [4] = molecular target: T3, FXR; test: PGL4-Shp-TK luciferase assay in primary hepatocytes; type: cell-based; details: primary hepatocytes from Fxr^+/+ mice; 100 μM TCA
From the text: as §1
Primary hepatocytes from Fxr^+/+ and Fxr^−/− mice were transfected with PGL4-Shp-TK firefly luciferase construct and the control plasmid phRL-SV40. After 24 h, the cells were treated with 100 μM taurocholic acid (TCA), TβMCA, or TβMCA with TCA. The cells were lysed, and luciferase activities measured as describe herein. The results are depicted in FIG. 1.

HFD-induced NAFLD model = test: HFD-induced NAFLD model: liver histology, liver weight, triglycerides (tempol, antibiotic); type: in vivo, mouse
From the text: High-fat diet (HFD) (60% kcal consisting of fat) was purchased from Bioserv. […] Fxr^fl/fl and Fxr^ΔIE (Kim et al., J. Lipid Res. 48:2664-2672, 2007) mice were backcrossed with C57BL/6N mice for over 10 generations. For the antibiotic (the combination of bacitracin, neomycin, and streptomycin) study, male C57BL/6N mice from 6 weeks of age were fed a high-fat diet (“HFD) and administered 0.1% (w/v) of each compound (the combination of bacitracin, neomycin, and streptomycin) in the drinking water. […] For TβMCA in vivo, male C57BL/6N mice from 6 weeks of age were fed a HFD and treated with the antibiotics (0.1% of each compound of bacitracin, neomycin, and streptomycin combination) for 3 days. Vehicle (saline), TCA (400 mg/kg body weight, dissolved in saline) or a combination of TCA and TβMCA (400 mg/kg body weight of each compound, dissolved in saline) were orally administered to the mice and followed by a second dose 12 h later. The mice were killed 2 h later for tissue collection. For the Gly-MCA study, Gly-MCA was custom synthesized. Bacon-flavored dough pills were produced as described (Walker et al., Toxicol. Appl. Pharmacol. 260:65-69, 2012) for oral administration of Gly-MCA (0.25 mg Gly-MCA/pill, dose of 10 mg/kg). Mice were trained to eat the dough pills prior to the study. For the prevention of obesity, insulin resistance and NAFLD, male wild-type (WT) C57BL/6N mice, 6- to 8-weeks-old, were fed a high-fat diet (Bio-Serv, Frenchtown, N.J.; 60 kcal % fat) from the age of 6 weeks and were orally administered with vehicle (control pills) or Gly-MCA (0.25 mg/pill/day, dose 10 mg/kg). C57BL/6N mice fed a high-fat diet for 12 weeks were administered (0.25 mg Gly-MCA/pill, dose of 5 mg/kg). Leptin-deficient db/db mice, 6- to 8-weeks-old, fed a chow diet, were administered Gly-MCA (0.25 mg/pill/day, 10 mg/kg). Mice were housed individually in their home cages. Cumulative food intake and TEEbal were measured for 1 week in vehicle and Gly-MCA-treated mice from 6 to 7 weeks of HFD. TEEbal was measured as previously described (Ravussin et al., Int. J. Obesity 37:399-403, 2013).
Hematoxylin and eosin (H&E) staining were performed on formalin fixed paraffin embedded sections using a standard protocol. Oil red 0 staining was performed on frozen liver sections using a standard protocol. At least three discontinuous liver sections were evaluated for each mouse.
Hepatic lipids were extracted using a 2:1 chloroform-methanol solution. Liver triglycerides were measured with a triglyceride colorimetric assay kit, according to the manufacturer's recommendation (Bioassay Systems, Hayward, Calif.).

[5] = tested on: high-fat diet-treated Fxr^fl/fl and Fxr^ΔIE mice; test: body mass gain of tempol-treated mice on a high-fat diet; type: in vivo, mouse; details: high-fat diet 10 weeks
From the text: High-fat diet (HFD) (60% kcal consisting of fat) was purchased from Bioserv. […] Fxr^fl/fl and Fxr^ΔIE (Kim et al., J. Lipid Res. 48:2664-2672, 2007) mice were backcrossed with C57BL/6N mice for over 10 generations. For the antibiotic (the combination of bacitracin, neomycin, and streptomycin) study, male C57BL/6N mice from 6 weeks of age were fed a high-fat diet (“HFD) and administered 0.1% (w/v) of each compound (the combination of bacitracin, neomycin, and streptomycin) in the drinking water. […] For TβMCA in vivo, male C57BL/6N mice from 6 weeks of age were fed a HFD and treated with the antibiotics (0.1% of each compound of bacitracin, neomycin, and streptomycin combination) for 3 days. Vehicle (saline), TCA (400 mg/kg body weight, dissolved in saline) or a combination of TCA and TβMCA (400 mg/kg body weight of each compound, dissolved in saline) were orally administered to the mice and followed by a second dose 12 h later. The mice were killed 2 h later for tissue collection. For the Gly-MCA study, Gly-MCA was custom synthesized. […] Cumulative food intake and TEEbal were measured for 1 week in vehicle and Gly-MCA-treated mice from 6 to 7 weeks of HFD. TEEbal was measured as previously described (Ravussin et al., Int. J. Obesity 37:399-403, 2013). […]

[6] = tested on: bile salt hydrolase (BSH); test: fecal bile salt hydrolase activity; type: in vivo, mouse; details: tempol vs vehicle
Description: Fecal proteins were prepared from feces samples (0.5 g) in pH 7.4 phosphate buffered saline (PBS, 5.0 mL) using sonication. […] Briefly, incubation was carried out in 3 mM sodium acetate buffer, pH 5.2, containing 0.1 mg/ml fecal protein and 50 μM TCDCA-d5 in a final volume of 200 μL. After a 20 min incubation at 37° C., the reaction was stopped by plunging the samples into dry ice. 100 μL of acetonitrile was directly added to the reaction mix. After centrifuging at 14,000×g for 20 min, 5 μL of the supernatant was transferred to an auto sampler vial subjected to analysis by a UPLC system coupled with a XEVO triple quadrupole tandem mass spectrometer (Waters Corp., Milford, Mass.).

SREBP1c-CIDEA pathway = test: liver mRNA and protein expression (qPCR, western blot); type: in vivo, mouse; details: for protein levels of mature nuclear SREBP1 and CIDEA in the liver: HFD 16 weeks
Description: The mucosa of intestine was gently scraped and liver was taken and both were flash frozen in liquid nitrogen and stored at −80° C. until RNA was prepared. RNA was extracted from frozen intestine and liver using TRIzol reagent (Invitrogen, Carlsbad, Calif.). cDNA was synthesized from 1 μg total RNA using Superscript II reverse transcriptase (Invitrogen, Carlsbad, Calif.). qPCR primers were designed with qPrimerDepot. Measured mRNA levels were normalized to those of 18S ribosomal RNA and expressed as fold change relative to those of control group.
Liver whole-cell or nuclear extracts were prepared. Membranes were incubated with antibodies against FXR (Santa Cruz Biotechnology, Inc., Santa Cruz, Calif.), SREBP1 (BD Biosciences, San Jose, Calif.), and CIDEA (Abcam, Cambridge, Mass.). The signals obtained were normalized to β-ACTIN (Abcam) for whole cell extract and LAMIN A/C (Santa Cruz) for nuclear extracts.

SMILES	FXR activation by TCA (luciferase activity) (human FXR [1])	FXR activity induced by synthetic agonist GW4064 (luciferase, normalized to Renilla) (human FXR [2])	Shp and Fgf15 induction by the FXR agonist TCA in the ileum (FXR [3])	FXR activation by TCA (luciferase activity) (FXR [4])	liver weights (HFD-induced NAFLD model; Fxr^fl/fl mice, HFD)	hepatic lipid droplets (liver histology) (HFD-induced NAFLD model; Fxr^fl/fl mice, HFD 14 weeks (antibiotic) and 16 weeks (tempol))	hepatic lipid (liver histology) (HFD-induced NAFLD model; Fxr^ΔIE mice, HFD)	hepatic triglyceride content (hepatic steatosis) (HFD-induced NAFLD model; Fxr^ΔIE mice, HFD)	liver weights (HFD-induced NAFLD model; HFD)	hepatic triglyceride (TG) contents decreased to (HFD-induced NAFLD model; HFD, relative to vehicle)	hepatic lipid droplets (liver histology) (HFD-induced NAFLD model; tempol: HFD 16 weeks, antibiotic: HFD 7 weeks)	weight gain less than that of vehicle treated mice ([5]; Fxr^fl/fl mice)	weight gain vs vehicle ([5]; Fxr^ΔIE mice)	bile salt hydrolase (BSH) enzymatic activity in the feces [6]	protein levels of mature nuclear SREBP1 and CIDEA in the liver (SREBP1c-CIDEA pathway; Fxr^ΔIE mice treated with tempol)	inflammation-related genes (Tlr2, Tlr4, Tlr9, Tnfα) mRNA in liver (SREBP1c-CIDEA pathway; HFD 7 weeks)	protein levels of mature nuclear SREBP1 and CIDEA in the liver (SREBP1c-CIDEA pathway; tempol-treated Fxr^fl/fl mice)
C[C@H](CCC(=O)NCCS(=O)(=O)O)[C@H]1CC[C@H]2[C@@H]3[C@@H](O)[C@@H](O)[C@@H]4C[C@H](O)CC[C@]4(C)[C@H]3CC[C@]12C [TβMCA, tauro-β-muricholic acid]	antagonizes FXR activation; also recorded: antagonized FXR activation by TCA	inhibited FXR	significantly blunted	antagonizes farnesoid X receptor (FXR) activation; also recorded: antagonized FXR activation by TCA													
CC1(C)CC(O)CC(C)(C)N1[O] [tempol, 4-hydroxy-2,2,6,6,-tetramethylpiperidine-1-oxyl]					significantly reduced	decreased hepatic lipid droplets	no changes in hepatic lipid	did not alleviate hepatic steatosis	decreased	~35%	significant reduction in hepatic lipid droplets	approximately 65%	insignificant difference in weight gain	significant downregulation	no decrease	comparable	significantly reduced
